Patent publication US20060167001A1, “Pyridazinone-derivatives as pde4 inhibitors” (priority 2002, published 2006)
Counter-ions that a name gives are not always drawn.

Assays:
PDE3 (cGMP-inhibited) = target: T1, PDE3 (cGMP-inhibited) (Homo sapiens, UniProt Q14432); experiment: Inhibition of PDE3 activity, Method A (homogenates of human platelets); assay type: biochemical; settings: read-out: PDE3 Inhibition [measured as −logIC50 (mol/l)] (converted)
T1 construct: investigated in homogenates of human platelets; from tissue; host or cells: homogenates of human platelets
T1 sequence (Q14432 whole entry): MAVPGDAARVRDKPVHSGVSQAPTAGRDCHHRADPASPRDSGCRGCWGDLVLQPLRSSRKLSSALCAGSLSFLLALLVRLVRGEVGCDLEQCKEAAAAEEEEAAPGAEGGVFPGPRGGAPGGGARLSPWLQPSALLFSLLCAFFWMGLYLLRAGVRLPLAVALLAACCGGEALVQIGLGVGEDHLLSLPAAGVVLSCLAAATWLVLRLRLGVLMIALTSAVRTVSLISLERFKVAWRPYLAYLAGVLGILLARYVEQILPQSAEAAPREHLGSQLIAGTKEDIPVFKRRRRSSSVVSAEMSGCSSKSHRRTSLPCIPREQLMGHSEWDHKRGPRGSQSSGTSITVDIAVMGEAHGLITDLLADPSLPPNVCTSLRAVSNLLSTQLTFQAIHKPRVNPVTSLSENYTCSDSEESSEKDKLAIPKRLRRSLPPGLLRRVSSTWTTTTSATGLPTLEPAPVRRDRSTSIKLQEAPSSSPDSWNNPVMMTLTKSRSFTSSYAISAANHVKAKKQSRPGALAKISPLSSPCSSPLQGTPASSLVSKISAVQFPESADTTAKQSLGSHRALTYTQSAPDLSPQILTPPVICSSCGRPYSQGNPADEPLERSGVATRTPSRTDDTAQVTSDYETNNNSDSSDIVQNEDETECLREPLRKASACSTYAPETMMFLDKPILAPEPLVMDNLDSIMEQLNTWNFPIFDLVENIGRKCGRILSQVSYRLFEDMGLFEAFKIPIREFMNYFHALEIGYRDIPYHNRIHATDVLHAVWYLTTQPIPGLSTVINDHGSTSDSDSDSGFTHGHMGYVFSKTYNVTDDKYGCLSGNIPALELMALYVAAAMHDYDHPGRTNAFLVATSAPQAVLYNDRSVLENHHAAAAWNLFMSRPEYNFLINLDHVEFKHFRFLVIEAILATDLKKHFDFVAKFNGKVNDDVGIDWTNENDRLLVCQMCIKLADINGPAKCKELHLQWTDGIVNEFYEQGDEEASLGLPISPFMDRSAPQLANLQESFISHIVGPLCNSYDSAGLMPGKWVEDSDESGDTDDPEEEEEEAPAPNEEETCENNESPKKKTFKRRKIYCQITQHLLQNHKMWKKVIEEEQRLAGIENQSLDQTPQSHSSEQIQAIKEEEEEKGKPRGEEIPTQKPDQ
Description: The PDE activity was determined according to Thompson et al. (Adv Cycl Nucl Res 10: 69-92, 1979) with some modifications (Bauer and Schwabe, Naunyn-Schmiedeberg's Arch Pharmacol 311: 193-198, 1980). The test samples contained 20 mM Tris (pH 7.4), 5 mM MgCl2, 0.5 μM cAMP or cGMP, [^3H]cAMP or [^3H]cGMP (about 30 000 cpm/sample), the PDE isoenzyme-specific additives described in greater detail below, the indicated concentrations of inhibitor and an aliquot of the enzyme solution in a total sample volume of 200 μl. Dilution series of the compounds according to the invention were prepared in DMSO and further diluted in the samples [1:100 (v/v)], to give the desired end concentration of the inhibitors at a DMSO concentration of 1% (v/v), which for its part has only a minute effect on PDE activity.
After preincubation at 37° C. for 5 minutes, the reaction was started by addition of the substrate (cAMP or cGMP). The samples were incubated at 37° C. for a further 15 min. The reaction was terminated by addition of 50 μl 0.2 N HCl. After cooling on ice for 10 minutes and addition of 25 μg 5′-nucleotidase (snake venom from Crotalus atrox), the mixture was again incubated at 37° C. for 10 mih and the samples were then applied to QAE Sephadex A-25 columns (sample volume 1 ml). The columns were eluted with 2 ml of 30 mM ammonium formate (pH 6.0). The radioactivity of the eluate was measured and corrected by the corresponding blank values (measured in the presence of denatured protein); the blank values were less than 5% of the total radioactivity. In no case did the proportion of hydrolyzed nucleotide exceed 30% of the original substrate concentration.
PDE3 (cGMP-inhibited) was investigated in homogenates of human platelets (see Schudt et al., Biochem Pharmacol 1991: 42, 153-162) using cAMP or cGMP as substrate.
The IC50 values were determined from the concentration-inhibition curves by nonlinear regression.

| melting point [°C] | IC50 (PDE3 (cGMP-inhibited)) [nM] | Structure (SMILES) |
| --- | --- | --- |
| 91 to 95 | – | COc1ccc(C2=NN(C3CCNCC3)C(=O)CC2C)cc1OC.Cl (stereo not drawn) |
| 109 to 110 | – | COc1ccc(C2=NN(C3CCN(C(=O)CN4CCN(c5ccccc5OC)CC4)CC3)C(=O)CC2)cc1OC.Cl.Cl |
| 145 to 148 | – | COc1ccc(C2=NN(C3CCN(CC(=O)N4CCOCC4)CC3)C(=O)CC2)cc1OC (as salt: hydrochloride) [Compound 10, 6-(3,4-Dimethoxy-phenyl)-2-[1-(2-morpholin4-yl-2-oxo-ethyl)-piperidin-4-yl]-4,5-dihydro-2-pyridazin-3-one hydrochloride] |
| 149 to 152 | 1740 | COc1ccc(C2=NN(C3CCN(C(C)=O)CC3)C(=O)CC2C)cc1OC (stereo not drawn) [Compound 4, 2-(1-Acetyl-piperidin-4-yl)-6-(3,4-dimethoxy-phenyl)-5-methyl-4,5-dihydro-2H-pyridazin-3-one] |
| 137 to 138 | 1780 | COc1ccc(C2=NN(C3CCN(C(=O)N4CCOCC4)CC3)C(=O)CC2C)cc1OC (stereo not drawn) [Compound 5] |
| 241 to 244 | 5890 | COc1ccc(C2=NN(C3CCN(Cc4cccnc4)CC3)C(=O)CC2C)cc1OC.Cl.Cl (stereo not drawn) [Compound 6, 6-(3,4-Dimethoxy-phenyl)-5-methyl-2-(1-pyridin-3-ylmethyl-piperidin-4-yl)-4,5-dihydro-2H-pyridazin-3-one dihydrochloride] |
| 201 to 203 | > 10000 | CCN1CCN(C(=O)N2CCC(N3N=C(c4ccc(OC)c(OC)c4)CCC3=O)CC2)C(=O)C1=O [Compound 7] |
| 151 to 154 | > 10000 | COc1ccc(C2=NN(C3CCN(C(=O)N4CCN(C)CC4)CC3)C(=O)CC2)cc1OC.Cl [Compound 8, 6-(3,4-Dimethoxy-phenyl)-2-{1-[1-(4-methyl-piperazin-1-yl)-methanoyl]-piperidin-4-yl}-4,5-dihydro-2H-pyridazin-3-one hydrochloride] |
| 191 to 193 | 245 | COc1ccc(C2=NN(C3CCN(S(=O)(=O)c4cccc5c(N(C)C)cccc45)CC3)C(=O)CC2)cc1OC [Compound 9, 6-(3,4-Dimethoxy-phenyl)-2-[1-(5-dimethylamino-naphthalene-1-sulfonyl)-piperidin-4-yl]-4,5-dihydro-2-pyridazin-3-one] |
| – | 4470 | COc1ccc(C2=NN(C3CCN(CC(=O)N4CCOCC4)CC3)C(=O)CC2)cc1OC [Compound 10, 6-(3,4-Dimethoxy-phenyl)-2-[1-(2-morpholin4-yl-2-oxo-ethyl)-piperidin-4-yl]-4,5-dihydro-2-pyridazin-3-one hydrochloride] |
| 179 to 184 | 501 | COc1ccc(C2=NN(C3CCN(S(=O)(=O)c4ccc(C)cc4)CC3)C(=O)CC2)cc1OC [Compound 11, 6-(3,4-Dimethoxy-phenyl)-2-[1-(toluene-4-sulfonyl)-piperidin-4-yl]-4,5-dihydro-2H-pyridazin-3-one] |
| 164 to 166 | 251 | COc1ccc(C2=NN(C3CCN(S(C)(=O)=O)CC3)C(=O)CC2)cc1OC [Compound 12, 6-(3,4-Dimethoxy-phenyl)-2-(1-methanesulfonyl-piperidin-4-yl)-4,5-dihydro-2H-pyridazin-3-one] |
| 185 to 186 | – | COc1ccc(C2=NN(C3CCN(S(=O)(=O)c4ccc(Cl)cc4)CC3)C(=O)CC2)cc1OC [Compound 13, 2-[1-(4-Chloro-benzenesulfonyl)-piperidin-4-yl]-6-(3,4-dimethoxy-phenyl)-4,5-dihydro-2H-pyridazin-3-one] |
| 114 | 251 | COc1ccc(C2=NN(C3CCN(S(=O)(=O)Cc4ccccc4)CC3)C(=O)CC2)cc1OC [Compound 14, 6-(3,4-Dimethoxy-phenyl)-2-(1-phenylmethanesulfonyl-piperidin-4-yl)-4,5-dihydro-2H-pyridazin-3-one] |
| 197 to 198 | 501 | COc1ccc(S(=O)(=O)N2CCC(N3N=C(c4ccc(OC)c(OC)c4)CCC3=O)CC2)cc1 [Compound 15, 6-(3,4-Dimethoxy-phenyl)-2-[1-(4-methoxy-benzenesulfonyl)-piperidin-4-yl]-4,5-dihydro-2H-pyridazin-3-one] |
| 158 to 160 | 79.4 | COc1ccc(C2=NN(C3CCN(S(=O)(=O)c4ccccc4C#N)CC3)C(=O)CC2)cc1OC [Compound 18, 2-{4-[3-(3,4-Dimethoxy-phenyl)-6-oxo-5,6-dihydro-4H-pyridazin-1-yl]-piperidine-1-sulfonyl}-benzonitrile] |
| 198 to 199 | 158 | COc1ccc(C2=NN(C3CCN(S(=O)(=O)c4ccccc4F)CC3)C(=O)CC2)cc1OC [Compound 20, 6-(3,4-Dimethoxy-phenyl)-2-[1-(2-fluoro-benzenesulfonyl)-Piperidin-4-yl]-4,5-dihydro-2H-pyridazin-3-one] |
| 118 to 119 | 100 | COc1ccc(C2=NN(C3CCN(S(=O)(=O)c4ccccc4OC(F)(F)F)CC3)C(=O)CC2)cc1OC [Compound 21, 6-(3,4-Dimethoxy-phenyl)-2-[1-(2-trifluoromethoxy-benzenesulfonyl)-piperidin-4-yl]-4,5-dihydro-2H-pyridazin-3-one] |
| 103 to 106 | – | COc1ccc(C2=NN(C3CCN(S(=O)(=O)N(C)C)CC3)C(=O)CC2)cc1OC [Compound 22, 4-[3-(3,4-Dimethoxy-phenyl)-6-oxo-5,6-dihydro-4H-pyridazin-1-yl]-piperidine-1-sulfonic acid dimethylamide] |
| 162 to 164 | – | COc1ccc(C2=NN(C3CCN(C(=O)c4cccnc4)CC3)C(=O)CC2)cc1OC [Compound 24, 6-(3,4-Dimethoxy-phenyl)-2-[1-(1-pyridin-3-yl-methanoyl)-piperidin-4-yl]-4,5-dihydro-2H-pyridazin-3-one] |
| 76 to 78 | – | COc1ccc(C2=NN(C3CCN(C(=O)NC(C)(C)C)CC3)C(=O)CC2)cc1OC [Compound 26, 4-[3-(3,4-Dimethoxy-phenyl)-6-oxo-5,6-dihydro-4H-pyridazin-1-yl]-piperidine-1-carboxylic acid tert-butylamide] |
| 121 to 122 | > 10000 | COc1ccc(C2=NN(C3CCN(CC(=O)N(C)C)CC3)C(=O)CC2)cc1OC.Cl [Compound 27, 2-{4-[3-(3,4-Dimethoxy-phenyl)-6-oxo-5,6-dihydro-4H-pyridazin-1-yl]-piperidin-1-yl}-N,N-dimethylacetamide hydrochloride] |
